Laboratory results taken from US11191269B2, “Use of an acyclic picolinamide compound as a fungicide for fungal diseases on turfgrasses” (Dow AgroSciences LLC, priority 2017, dated 2021).

Experiments:
[1] = test system: Sclerotinia homoeocarpa (SCLEHO); test: Field assessment of Sclerotinia homoeocarpa (SCLEHO), dollar spot, on creeping bentgrass; type: in vivo
[2] = test system: Glomerella graminicola (COLLGR); test: Field assessment of Glomerella graminicola (COLLGR), anthracnose, on annual bluegrass; type: in vivo

## COc1ccnc(C(=O)N[C@@H](C)C(=O)O[C@@H](C)C(c2ccc(F)cc2)c2ccc(F)cc2)c1OC(C)=O [Compound I, (S)-1,1-bis(4-fluorophenyl)propan-2-yl (3-acetoxy-4-methoxypicolinoyl)-L-alaninate]
[1]; 250 g ai/ha, 0 DAAA, percentage of plot infested
  Dollar Spot Infestation (% Visual): 2.2%
[1]; 250 g ai/ha, 6 DAAC
  Dollar Spot Infestation (% Visual): 0.6%
[1]; 250 g ai/ha, 8 DAAA
  Dollar Spot Infestation (% Visual): 0.8%
[1]; 250 g ai/ha, 8 DAAB
  Dollar Spot Infestation (% Visual): 0.8%
[1]; 250 g ai/ha, 13 DAAB
  Dollar Spot Infestation (% Visual): 1.1%
[1]; 250 g ai/ha, 13 DAAC
  Dollar Spot Infestation (% Visual): 2.1%
[1]; 250 g ai/ha, 14 DAAA
  Dollar Spot Infestation (% Visual): 0.7%
[1]; 500 g ai/ha, 0 DAAA
  Dollar Spot Infestation (% Visual): 1.7%
[1]; 500 g ai/ha, 6 DAAC
  Dollar Spot Infestation (% Visual): 0.3%
[1]; 500 g ai/ha, 8 DAAA
  Dollar Spot Infestation (% Visual): 0.5%
[1]; 500 g ai/ha, 8 DAAB
  Dollar Spot Infestation (% Visual): 0.5%
[1]; 500 g ai/ha, 13 DAAB
  Dollar Spot Infestation (% Visual): 0.6%
[1]; 500 g ai/ha, 13 DAAC
  Dollar Spot Infestation (% Visual): 0.5%
[1]; 500 g ai/ha, 14 DAAA
  Dollar Spot Infestation (% Visual): 0.5%
[1]; Compound I applied at 500 g ai/ha
  Dollar spot control compared with commercial standards (in words): provided better control than Eagle 20EW and was equivalent to Xzemplar Fungicide
[1]; formulations of Compound I, observation period
  Dollar spot disease control (in words): significantly reduce dollar spot disease
[2]; 250 and 500 g ai/ha treatments, Poa annua
  Anthracnose control compared with commercial standard (in words): equivalent to the control provided by Velista
[2]; 250 g ai/ha, 0 DAAA, Poa annua, percentage of plot infested
  Anthracnose Infestation (% Visual): 22.1%
[2]; 250 g ai/ha, 8 DAAA, Poa annua
  Anthracnose Infestation (% Visual): 7%
[2]; 250 g ai/ha, 10 DAAB, Poa annua
  Anthracnose Infestation (% Visual): 22.1%
[2]; 250 g ai/ha, 11 DAAC, Poa annua
  Anthracnose Infestation (% Visual): 11.5%
[2]; 250 g ai/ha, 14 DAAA, Poa annua
  Anthracnose Infestation (% Visual): 7%
[2]; 250 g ai/ha, 17 DAAB, Poa annua
  Anthracnose Infestation (% Visual): 11.5%
[2]; 250 g ai/ha, 17 DAAC, Poa annua
  Anthracnose Infestation (% Visual): 22.1%
[2]; 500 g ai/ha, 0 DAAA, Poa annua
  Anthracnose Infestation (% Visual): 43.2%
[2]; 500 g ai/ha, 8 DAAA, Poa annua
  Anthracnose Infestation (% Visual): 9.2%
[2]; 500 g ai/ha, 10 DAAB, Poa annua
  Anthracnose Infestation (% Visual): 9.2%
[2]; 500 g ai/ha, 11 DAAC, Poa annua
  Anthracnose Infestation (% Visual): 11.5%
[2]; 500 g ai/ha, 14 DAAA, Poa annua
  Anthracnose Infestation (% Visual): 7%
[2]; 500 g ai/ha, 17 DAAB, Poa annua
  Anthracnose Infestation (% Visual): 11.5%
[2]; 500 g ai/ha, 17 DAAC, Poa annua
  Anthracnose Infestation (% Visual): 11.5%
[2]; formulations of Compound I, Poa annua putting greens
  Anthracnose disease control (in words): provided significant control of anthracnose disease
